Test [1] deals with T1, Histone-lysine N-methyltransferase NSD2 (Homo sapiens, UniProt O96028).
T1 sequence (O96028 whole entry): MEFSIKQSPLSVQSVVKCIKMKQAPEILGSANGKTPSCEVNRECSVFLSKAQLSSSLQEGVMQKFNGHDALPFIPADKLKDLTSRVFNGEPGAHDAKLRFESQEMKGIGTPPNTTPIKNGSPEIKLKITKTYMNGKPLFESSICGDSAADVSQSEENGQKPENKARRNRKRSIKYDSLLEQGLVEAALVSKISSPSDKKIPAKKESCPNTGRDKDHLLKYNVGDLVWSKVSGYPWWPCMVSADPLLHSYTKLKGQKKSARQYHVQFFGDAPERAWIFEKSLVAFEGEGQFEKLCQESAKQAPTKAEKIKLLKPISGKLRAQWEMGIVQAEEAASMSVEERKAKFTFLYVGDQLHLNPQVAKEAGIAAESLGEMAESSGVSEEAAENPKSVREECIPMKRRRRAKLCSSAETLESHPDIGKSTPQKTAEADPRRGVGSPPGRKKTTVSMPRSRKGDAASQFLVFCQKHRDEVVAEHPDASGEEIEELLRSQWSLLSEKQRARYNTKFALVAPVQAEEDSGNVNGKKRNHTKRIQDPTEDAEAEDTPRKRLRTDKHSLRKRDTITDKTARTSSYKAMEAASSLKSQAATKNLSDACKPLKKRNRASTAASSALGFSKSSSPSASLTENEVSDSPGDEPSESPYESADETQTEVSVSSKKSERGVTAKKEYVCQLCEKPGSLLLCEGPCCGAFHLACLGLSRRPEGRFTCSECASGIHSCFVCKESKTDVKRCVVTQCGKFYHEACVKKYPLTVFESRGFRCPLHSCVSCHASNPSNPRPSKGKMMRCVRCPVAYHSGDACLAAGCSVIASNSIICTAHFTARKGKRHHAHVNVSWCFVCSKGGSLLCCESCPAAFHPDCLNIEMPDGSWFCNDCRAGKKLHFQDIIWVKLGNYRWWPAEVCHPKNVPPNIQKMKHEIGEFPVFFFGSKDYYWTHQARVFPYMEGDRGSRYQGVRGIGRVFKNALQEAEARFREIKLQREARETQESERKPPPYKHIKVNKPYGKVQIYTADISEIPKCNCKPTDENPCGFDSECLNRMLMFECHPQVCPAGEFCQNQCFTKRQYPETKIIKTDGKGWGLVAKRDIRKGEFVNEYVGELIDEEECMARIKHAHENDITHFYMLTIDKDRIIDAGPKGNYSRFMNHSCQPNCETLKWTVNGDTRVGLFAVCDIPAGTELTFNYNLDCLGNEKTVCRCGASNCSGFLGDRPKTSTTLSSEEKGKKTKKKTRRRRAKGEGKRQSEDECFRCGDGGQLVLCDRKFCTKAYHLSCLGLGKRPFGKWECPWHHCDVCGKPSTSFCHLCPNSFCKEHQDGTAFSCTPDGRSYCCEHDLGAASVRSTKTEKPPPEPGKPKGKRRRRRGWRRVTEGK
Type of test: biochemical.

Test [2] addresses Serine/threonine-protein phosphatase (Homo sapiens, UniProt Q9BPW0). Nature of the test: PP5 phosphatase inhibitors, dose response, biochemical, fluorescence (AID 2395).
The target in test [3] is Heat shock protein HSP 90-alpha (Homo sapiens, UniProt P07900). The test can be described thus: Luminescence-based dose response biochemical high throughput screening assay for inhibitors of the Heat Shock Protein 90 (HSP90). [Related pubchem assays: 1831 (Summary AID.), 1846 (Confirmation screen.), 1789 (Primary screen.)].
In test [4] the target is Serine/threonine-protein phosphatase PP1-alpha catalytic subunit (Homo sapiens, UniProt P62136). The test can be described thus: PP1 phosphatase inhibitors, dose response, biochemical, fluorescence (AID 2394).
Serine/threonine-protein phosphatase PP1-alpha catalytic subunit, sequence (P62136 whole entry): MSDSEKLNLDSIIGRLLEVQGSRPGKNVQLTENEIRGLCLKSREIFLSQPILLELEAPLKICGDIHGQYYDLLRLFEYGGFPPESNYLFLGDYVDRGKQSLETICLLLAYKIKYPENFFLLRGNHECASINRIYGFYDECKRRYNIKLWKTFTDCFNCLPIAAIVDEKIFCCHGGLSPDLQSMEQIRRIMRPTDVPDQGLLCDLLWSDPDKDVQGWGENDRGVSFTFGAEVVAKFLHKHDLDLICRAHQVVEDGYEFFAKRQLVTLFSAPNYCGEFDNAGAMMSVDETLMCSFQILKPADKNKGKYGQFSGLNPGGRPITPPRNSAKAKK
Test [5] concerns the target T2, DNA repair protein RAD52 homolog (Homo sapiens, UniProt P43351).
T2 sequence (P43351 whole entry): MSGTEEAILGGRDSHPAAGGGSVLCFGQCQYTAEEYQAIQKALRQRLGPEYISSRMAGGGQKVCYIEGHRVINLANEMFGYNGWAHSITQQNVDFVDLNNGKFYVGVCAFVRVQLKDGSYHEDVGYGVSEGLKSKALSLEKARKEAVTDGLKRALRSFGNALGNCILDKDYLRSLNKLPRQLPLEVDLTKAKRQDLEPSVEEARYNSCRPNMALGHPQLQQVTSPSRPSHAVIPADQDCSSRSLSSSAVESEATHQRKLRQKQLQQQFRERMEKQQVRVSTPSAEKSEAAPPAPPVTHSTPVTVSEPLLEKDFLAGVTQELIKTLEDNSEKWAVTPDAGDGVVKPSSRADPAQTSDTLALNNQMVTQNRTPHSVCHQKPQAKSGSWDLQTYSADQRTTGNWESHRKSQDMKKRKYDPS
It counts as functional, biochemical.

A short description of test [6]: inhibitors of SNCA 5'UTR-driven reporter translation, confirmation, H4 neuroglioma cells, luminescence (AID 1988). Type of test: functional, cell-based.
Another test has as its target Paired box protein Pax-8 (Homo sapiens, UniProt Q06710). The test can be described thus: inhibitors of PAX8-driven TPO luciferase reporter, dose response, RMG-I cells, cherry-pick (AID 687027).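 Further: luciferase reporter driven by Pax8 target thyroperoxidase promoter measured by SteadyGlo luminescence.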 Type of test: functional, cell-based. A general note: Reporter assays use an easily measured gene product as a stand-in for the process of interest.
The next test deals with Nonstructural protein 1 (Influenza A virus, UniProt Q194T2). It counts as functional, Influenza A virus (A/California/07/2009(H1N1)).
Nonstructural protein 1, sequence (Q194T2 whole entry): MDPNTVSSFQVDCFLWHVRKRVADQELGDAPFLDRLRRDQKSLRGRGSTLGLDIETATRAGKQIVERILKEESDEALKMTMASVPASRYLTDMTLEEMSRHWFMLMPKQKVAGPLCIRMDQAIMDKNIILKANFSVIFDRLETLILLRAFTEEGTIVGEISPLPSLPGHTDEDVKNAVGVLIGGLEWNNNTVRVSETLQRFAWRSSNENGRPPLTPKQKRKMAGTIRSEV
The next test concerns the target CAAX prenyl protease 1 (Saccharomyces cerevisiae S288c, UniProt P47154). The test can be described thus: Ste24 protease inhibitors, dose response, biochemical, S. cerevisiae, plate reader, cherry-pick (AID 488815).
The target in test [7] is T3, Ubiquitin-conjugating enzyme E2 N (Homo sapiens, UniProt P61088).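 Further: Dose-response confirmation in a TR-FRET assay detecting UBC13-driven polyubiquitin chain formation, inhibition measured.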
T3 sequence (P61088 whole entry): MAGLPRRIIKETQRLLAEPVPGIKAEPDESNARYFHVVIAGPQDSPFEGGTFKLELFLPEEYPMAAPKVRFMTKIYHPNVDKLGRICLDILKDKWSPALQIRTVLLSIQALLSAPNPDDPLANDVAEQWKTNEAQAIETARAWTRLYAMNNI
It counts as functional.

The nature of test [8]: inhibitors of intracellular T. cruzi replication, confirmation, NIH3T3 host cells, beta-gal luminescence (AID 2044).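 Further: intracellular parasites grown in NIH/3T3 mouse fibroblasts as host cells; luminescent beta-galactosidase reporter signal from transgenic T. cruzi replicating inside host cells; inhibitors lower the luminescence signal.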 Type of test: functional, cell-based.
The target in a further test is T4, CAAX prenyl protease 2 (Saccharomyces cerevisiae S288c, UniProt Q03530).
T4 sequence (Q03530 whole entry): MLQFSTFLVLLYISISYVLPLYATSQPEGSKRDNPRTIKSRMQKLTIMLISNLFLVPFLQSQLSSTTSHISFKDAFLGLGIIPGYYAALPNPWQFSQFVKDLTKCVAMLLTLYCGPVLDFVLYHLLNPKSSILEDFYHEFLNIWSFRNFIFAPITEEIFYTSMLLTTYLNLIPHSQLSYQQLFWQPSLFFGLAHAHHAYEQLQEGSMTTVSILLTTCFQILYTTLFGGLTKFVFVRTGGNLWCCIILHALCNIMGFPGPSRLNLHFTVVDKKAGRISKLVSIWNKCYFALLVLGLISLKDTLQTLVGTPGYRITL
It counts as biochemical.

Test [9] concerns the target Neurotensin receptor type 1 (Homo sapiens, UniProt P30989). Type of test: functional.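 Further: Image-based confirmatory dose-response assay measuring agonist activity at NTR1; NTR1-expressing U2OS osteosarcoma cells imaged for beta-arrestin GFP spot formation; agonist potency where compounds increase beta-arrestin recruitment.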

Experimental findings from ChEMBL document CHEMBL1201862, “PubChem BioAssay data set” (2004) are described below.

The source made the active and inactive calls.

Neurotensin receptor type 1, sequence (P30989 whole entry): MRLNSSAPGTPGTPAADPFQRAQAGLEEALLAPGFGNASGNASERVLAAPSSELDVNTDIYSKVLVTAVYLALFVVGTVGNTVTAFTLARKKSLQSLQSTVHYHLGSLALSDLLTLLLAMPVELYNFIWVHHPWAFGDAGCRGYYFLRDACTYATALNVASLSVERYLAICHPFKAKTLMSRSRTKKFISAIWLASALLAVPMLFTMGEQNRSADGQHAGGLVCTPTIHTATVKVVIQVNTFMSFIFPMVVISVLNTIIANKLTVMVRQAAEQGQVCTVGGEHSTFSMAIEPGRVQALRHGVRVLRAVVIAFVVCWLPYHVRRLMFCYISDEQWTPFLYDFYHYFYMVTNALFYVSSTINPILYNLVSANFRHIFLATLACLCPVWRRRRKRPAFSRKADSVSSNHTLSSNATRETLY
CAAX prenyl protease 1, sequence (P47154 whole entry): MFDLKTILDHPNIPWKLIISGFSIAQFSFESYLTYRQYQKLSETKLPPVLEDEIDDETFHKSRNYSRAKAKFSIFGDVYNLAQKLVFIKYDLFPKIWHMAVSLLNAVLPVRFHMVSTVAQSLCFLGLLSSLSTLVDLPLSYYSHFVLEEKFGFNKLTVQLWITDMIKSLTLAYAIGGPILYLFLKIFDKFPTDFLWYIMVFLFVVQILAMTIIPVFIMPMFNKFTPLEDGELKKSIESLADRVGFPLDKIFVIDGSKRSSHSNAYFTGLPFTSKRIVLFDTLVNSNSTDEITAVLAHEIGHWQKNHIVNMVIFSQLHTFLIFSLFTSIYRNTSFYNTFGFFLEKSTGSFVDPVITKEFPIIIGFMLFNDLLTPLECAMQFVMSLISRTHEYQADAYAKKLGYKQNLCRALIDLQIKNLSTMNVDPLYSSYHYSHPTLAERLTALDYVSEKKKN
Serine/threonine-protein phosphatase, sequence (Q9BPW0 whole entry): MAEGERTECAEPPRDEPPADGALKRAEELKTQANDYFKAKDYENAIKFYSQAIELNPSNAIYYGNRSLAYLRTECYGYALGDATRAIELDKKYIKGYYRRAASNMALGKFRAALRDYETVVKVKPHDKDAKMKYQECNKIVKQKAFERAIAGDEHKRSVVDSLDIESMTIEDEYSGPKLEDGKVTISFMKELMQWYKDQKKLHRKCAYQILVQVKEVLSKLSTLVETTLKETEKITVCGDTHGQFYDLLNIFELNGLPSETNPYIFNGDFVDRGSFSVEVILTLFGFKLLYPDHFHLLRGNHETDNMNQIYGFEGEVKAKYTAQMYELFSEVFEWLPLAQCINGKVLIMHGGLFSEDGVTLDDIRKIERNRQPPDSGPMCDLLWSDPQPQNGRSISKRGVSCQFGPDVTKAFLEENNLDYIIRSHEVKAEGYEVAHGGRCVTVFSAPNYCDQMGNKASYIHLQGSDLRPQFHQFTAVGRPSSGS
Paired box protein Pax-8, sequence (Q06710 whole entry): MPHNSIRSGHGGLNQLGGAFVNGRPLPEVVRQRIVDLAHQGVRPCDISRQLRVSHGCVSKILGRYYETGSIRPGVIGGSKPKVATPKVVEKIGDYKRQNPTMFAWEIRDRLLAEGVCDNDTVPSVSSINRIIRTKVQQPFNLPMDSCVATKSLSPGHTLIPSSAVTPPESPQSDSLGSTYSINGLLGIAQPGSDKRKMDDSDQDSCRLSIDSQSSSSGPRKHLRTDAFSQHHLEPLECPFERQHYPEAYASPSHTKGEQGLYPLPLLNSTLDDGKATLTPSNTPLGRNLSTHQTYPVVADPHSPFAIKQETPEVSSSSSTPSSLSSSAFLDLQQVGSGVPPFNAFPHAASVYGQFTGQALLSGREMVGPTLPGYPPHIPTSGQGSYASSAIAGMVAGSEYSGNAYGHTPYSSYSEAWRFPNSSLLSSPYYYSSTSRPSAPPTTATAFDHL

The AC50 is the concentration at which the activity in the assay is half-maximal. A word on the IC50: it is the point on the concentration scale where inhibition reaches its midpoint. `CCc1ccc(S(=O)(=O)/N=C2\C=C(Nc3cccc(C(=O)O)c3)C(=O)c3ccccc32)cc1`: in [1], the half-maximal activity concentration (AC50) is 0.263 µM (active). Also, the results for the IC50 in test [2], in [3] and in [4] were 6.85 µM (active), 0.926 µM (active) and 22.7 µM (not active), respectively.
`COc1cc2c(cc1OC)-c1c(OC)c(OC)cc3c1C(C2)N(C)CC3` (stereo not drawn): the AC50 in test [5] was 2.14 µM (active).
The term EC50 denotes the concentration giving half of the maximal effect. For `COc1cc(OC)c(NC2=CC(=O)C(=O)c3ccccc32)cc1Cl`, in [6], the EC50 was 0.197 µM (active). Also, on Paired box protein Pax-8, the AC50 is 3.4 µM (active). The 50% inhibitory concentration (IC50) on Nonstructural protein 1 was > 100 µM (active).
As to `CCCCCCCCCCOC(=O)Cn1c(COc2cccc(OC)c2)[n+](C)c2ccccc21`, the AC50 was 2.11 µM (active) at CAAX prenyl protease 1 and 65.2 µM (active) at CAAX prenyl protease 2. In addition, the IC50 in [7] was > 20 µM (inactive). For the same molecule, the EC50 is 0.765 µM (active) in [8] and 14.3 µM (active) in test [9].
